Assays:
pigweed, palmer [1] = assay: Test A preemergence; assay type: in vivo, Amaranthus palmeri
Outline: (§1)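 Greenhouse pot test, 10 days. Compound (non-phytotoxic solvent, surfactant) sprayed on soil at seeding or on seedlings at one- to two-leaf stage. Visual injury rated 0–100 against untreated plants.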

kochia [2] = assay: Test A postemergence; assay type: in vivo, Bassia scoparia; conditions: postemergence, 10 days
Outline: as §1

oat, wild [3] = assay: Test A postemergence; assay type: in vivo, Avena fatua; conditions: postemergence, 10 days
Outline: as §1

galium = assay: Test A postemergence; assay type: in vivo, Galium aparine; conditions: postemergence, 10 days
Outline: as §1

goosegrass [4] = assay: Test A postemergence; assay type: in vivo, Eleusine indica; conditions: postemergence, 10 days
Outline: as §1

soybean [5] = assay: Test A preemergence; assay type: in vivo, Glycine max
Outline: as §1

ragweed [6] = assay: Test A preemergence; assay type: in vivo, Ambrosia artemisiifolia
Outline: as §1

ducksalad = assay: Test B flooded paddy test; assay type: in vivo, Heteranthera limosa; conditions: 250 g ai/ha, Flood, 13 days, 0 to 100 scale (0 no effect, 100 complete control)
Outline: (§2)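 Percent weed or crop control, judged by eye on a 0–100 scale 13 days post-treatment, reflects compound added to a 3 cm flood maintained over 2-leaf plants in the greenhouse. Missing entries are marked with a dash.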

soybean [7] = assay: Test A postemergence; assay type: in vivo, Glycine max; conditions: postemergence, 10 days
Outline: as §1

oat, wild [8] = assay: Test A preemergence; assay type: in vivo, Avena fatua
Outline: as §1

ragweed [9] = assay: Test A postemergence; assay type: in vivo, Ambrosia artemisiifolia; conditions: postemergence, 10 days
Outline: as §1

wheat [10] = assay: Test A preemergence; assay type: in vivo, Triticum aestivum
Outline: as §1

kochia [11] = assay: Test A preemergence; assay type: in vivo, Bassia scoparia
Outline: as §1

wheat [12] = assay: Test A postemergence; assay type: in vivo, Triticum aestivum; conditions: postemergence, 10 days
Outline: as §1

foxtail, giant [13] = assay: Test A preemergence; assay type: in vivo, Setaria faberi
Outline: as §1

pigweed, palmer [14] = assay: Test A postemergence; assay type: in vivo, Amaranthus palmeri; conditions: postemergence, 10 days
Outline: as §1

goosegrass [15] = assay: Test A preemergence; assay type: in vivo, Eleusine indica
Outline: as §1

rice = assay: Test B flooded paddy test; assay type: in vivo, Oryza sativa; conditions: 250 g ai/ha, Flood, 13 days, 0 to 100 scale (0 no effect, 100 complete control)
Outline: as §2

foxtail, giant [16] = assay: Test A postemergence; assay type: in vivo, Setaria faberi; conditions: postemergence, 10 days
Outline: as §1

horseweed = assay: Test A postemergence; assay type: in vivo, Erigeron canadensis; conditions: postemergence, 10 days
Outline: as §1

ryegrass, Italian [17] = assay: Test A preemergence; assay type: in vivo, Lolium multiflorum
Outline: as §1

barnyardgrass = assay: Test B flooded paddy test; assay type: in vivo, Echinochloa crus-galli; conditions: 250 g ai/ha, Flood, 13 days, 0 to 100 scale (0 no effect, 100 complete control)
Outline: as §2

ryegrass, Italian [18] = assay: Test A postemergence; assay type: in vivo, Lolium multiflorum; conditions: postemergence, 10 days
Outline: as §1

blackgrass [19] = assay: Test A postemergence; assay type: in vivo, Alopecurus myosuroides; conditions: postemergence, 10 days
Outline: as §1

corn [20] = assay: Test A postemergence; assay type: in vivo, Zea mays; conditions: postemergence, 10 days
Outline: as §1

corn [21] = assay: Test A preemergence; assay type: in vivo, Zea mays
Outline: as §1

blackgrass [22] = assay: Test A preemergence; assay type: in vivo, Alopecurus myosuroides
Outline: as §1

sedge, umbrella = assay: Test B flooded paddy test; assay type: in vivo, Cyperus difformis; conditions: 250 g ai/ha, Flood, 13 days, 0 to 100 scale (0 no effect, 100 complete control)
Outline: as §2

[23] = 125 g ai/ha, visual injury after 10 days, 0 to 100 scale, 0 is no effect, 100 is complete control
[24] = 500 g ai/ha, 0 to 100 scale (0 no effect, 100 complete control), 10 days
[25] = 125 g ai/ha, 0 to 100 scale, 0 no effect, 100 complete control
[26] = 500 g ai/ha, visual injury, 0 to 100 scale (0 no effect, 100 complete control)

For `Cc1ccc(-n2cnc(C3CCC3)n2)cc1C(=O)N1C[C@H](C)Oc2c(C)cccc21` [Compound 97], the “Plant response rating, Pigweed, Palmer” value (pigweed, palmer [1]; [23]) was 100, the “Plant response rating, Pigweed, Palmer” value (pigweed, palmer [1]; [24]) was 100 and the “Kochia plant response rating” value (kochia [2]; [25]) was 70. For the same compound, the “Plant response rating, Kochia” value (kochia [2]; [26]) was 100, the “Oat, Wild plant response rating” value (oat, wild [3]; [25]) was 30 and the “Plant response rating, Oat, Wild” value (oat, wild [3]; [26]) was 70. The “Galium plant response rating” value (galium; [25]) was 80, the “Plant response rating, Galium” value (galium; [26]) was 100 and the “Goosegrass plant response rating” value (goosegrass [4]; [25]) was 70. For the same compound, the “Plant response rating, Goosegrass” value (goosegrass [4]; [26]) was 90, the “Plant response rating, Soybean” value (soybean [5]; [23]) was 40 and the “Plant response rating, Soybean” value (soybean [5]; [24]) was 100. The “Plant response rating, Ragweed” value (ragweed [6]; [23]) was 30, the “Plant response rating, Ragweed” value (ragweed [6]; [24]) was 80 and the “Plant response rating, Ducksalad” value (ducksalad) was 0. For the same compound, the “Soybean plant response rating” value (soybean [7]; [25]) was 100, the “Plant response rating, Soybean” value (soybean [7]; [26]) was 100 and the “Plant response rating, Oat, Wild” value (oat, wild [8]; [23]) was 90. The “Plant response rating, Oat, Wild” value (oat, wild [8]; [24]) was 90, the “Ragweed plant response rating” value (ragweed [9]; [25]) was 50 and the “Plant response rating, Ragweed” value (ragweed [9]; [26]) was 80. For the same compound, the “Plant response rating, Wheat” value (wheat [10]; [23]) was 10, the “Plant response rating, Wheat” value (wheat [10]; [24]) was 40 and the “Plant response rating, Kochia” value (kochia [11]; [23]) was 60. The “Plant response rating, Kochia” value (kochia [11]; [24]) was 80, the “Wheat plant response rating” value (wheat [12]; [25]) was 20 and the “Plant response rating, Wheat” value (wheat [12]; [26]) was 70. For the same compound, the “Plant response rating, Foxtail, Giant” value (foxtail, giant [13]; [23]) was 100, the “Plant response rating, Foxtail, Giant” value (foxtail, giant [13]; [24]) was 100 and the “Pigweed, Palmer plant response rating” value (pigweed, palmer [14]; [25]) was 90. For the same compound, the “Plant response rating, Pigweed, Palmer” value (pigweed, palmer [14]; [26]) was 100, the “Plant response rating, Goosegrass” value (goosegrass [15]; [23]) was 100 and the “Plant response rating, Goosegrass” value (goosegrass [15]; [24]) was 100. The “Plant response rating, Rice” value (rice) was 0, the “Foxtail, Giant plant response rating” value (foxtail, giant [16]; [25]) was 90 and the “Plant response rating, Foxtail, Giant” value (foxtail, giant [16]; [26]) was 90. For the same compound, the “Horseweed plant response rating” value (horseweed; [25]) was 30, the “Plant response rating, Horseweed” value (horseweed; [26]) was 90 and the “Plant response rating, Ryegrass, Italian” value (ryegrass, Italian [17]; [23]) was 70. The “Plant response rating, Ryegrass, Italian” value (ryegrass, Italian [17]; [24]) was 100, the “Plant response rating, Barnyardgrass” value (barnyardgrass) was 0 and the “Ryegrass, Italian plant response rating” value (ryegrass, Italian [18]; [25]) was 40. The “Plant response rating, Ryegrass, Italian” value (ryegrass, Italian [18]; [26]) was 80, the “Blackgrass plant response rating” value (blackgrass [19]; [25]) was 30 and the “Plant response rating, Blackgrass” value (blackgrass [19]; [26]) was 80. For the same compound, the “Corn plant response rating” value (corn [20]; [25]) was 30, the “Plant response rating, Corn” value (corn [20]; [26]) was 70 and the “Plant response rating, Corn” value (corn [21]; [23]) was 10. The “Plant response rating, Corn” value (corn [21]; [24]) was 20, the “Plant response rating, Blackgrass” value (blackgrass [22]; [23]) was 10 and the “Plant response rating, Blackgrass” value (blackgrass [22]; [24]) was 40. The “Plant response rating, Sedge, Umbrella” value (sedge, umbrella) was 0.

— US20260262643A1, “HERBICIDAL BENZOXAZINES” (FMC CORPORATION, priority 2022, published 2026)
